Data reported in the supplement of paper PMC10307832.

Tests used:
Experiment in all cases: relative viability (nuclei count vs DMSO), 5 days (fraction); higher = more cells survive
[1] = compound: COc1cc2ncn(-c3cc(OCc4ccccc4C(F)(F)F)c(C(N)=O)s3)c2cc1OC + CS(=O)(=O)N1CCN(Cc2cc3nc(-c4cccc5[nH]ncc45)nc(N4CCOCC4)c3s2)CC1 [Pictilisib] (partner 1 µM)
In short: (§1)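 One day after seeding in 1536-well plates, lung cancer cell lines were dosed by pin tool. Dosing was either single-drug or a fixed anchor-drug dose plus five library-drug doses (not always all listed) in √10 steps. After 5 days, nuclei were stained in one fix-and-stain step and counted on 4× images, and relative viability is the nuclei count of treated wells over that of vehicle wells, given as the median of duplicate plates.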

[2] = compound: COc1cc2ncn(-c3cc(OCc4ccccc4C(F)(F)F)c(C(N)=O)s3)c2cc1OC + CC1(C)CCC(c2ccc(Cl)cc2)=C(CN2CCN(c3ccc(C(=O)NS(=O)(=O)c4ccc(N[C@H](CCN5CCOCC5)CSc5ccccc5)c(S(=O)(=O)C(F)(F)F)c4)cc3)CC2)C1 [Navitoclax] (partner 0.5 µM)
In short: as §1

[3] = compound: COc1cc2ncn(-c3cc(OCc4ccccc4C(F)(F)F)c(C(N)=O)s3)c2cc1OC + CC(C)C[C@H](NC(=O)[C@H](Cc1ccccc1)NC(=O)c1cnccn1)B(O)O [Bortezomib] (partner 0.002 µM)
In short: as §1

[4] = compound: COc1cc2ncn(-c3cc(OCc4ccccc4C(F)(F)F)c(C(N)=O)s3)c2cc1OC + C[C@]1(O)C[C@@H](c2nc(-c3ccc4ccc(-c5ccccc5)nc4c3)c3c(N)nccn32)C1 [Linsitinib] (partner 1 µM)
In short: as §1

[5] = compound: COc1cc2ncn(-c3cc(OCc4ccccc4C(F)(F)F)c(C(N)=O)s3)c2cc1OC + O=C(c1cc(Cc2n[nH]c(=O)c3ccccc23)ccc1F)N1CCN(C(=O)C2CC2)CC1 [Olaparib] (partner 8 µM)
In short: as §1

[6] = compound: COc1cc2ncn(-c3cc(OCc4ccccc4C(F)(F)F)c(C(N)=O)s3)c2cc1OC + C[C@@H](Oc1cc(-c2cnn(C3CCNCC3)c2)cnc1N)c1c(Cl)ccc(F)c1Cl [Crizotinib] (partner 1 µM)
In short: as §1

[7] = compound: COc1cc2ncn(-c3cc(OCc4ccccc4C(F)(F)F)c(C(N)=O)s3)c2cc1OC + COc1cc2c(Oc3ccc(NC(=O)C4(C(=O)Nc5ccc(F)cc5)CC4)cc3F)ccnc2cc1OCCCN1CCOCC1 [Foretinib] (partner 0.25 µM)
In short: as §1

[8] = compound: COc1cc2ncn(-c3cc(OCc4ccccc4C(F)(F)F)c(C(N)=O)s3)c2cc1OC + Cc1nc(NC(=O)N2CCC[C@H]2C(N)=O)sc1-c1ccnc(C(C)(C)C(F)(F)F)c1 [Alpelisib] (partner 2 µM)
In short: as §1

[9] = compound: COc1cc2ncn(-c3cc(OCc4ccccc4C(F)(F)F)c(C(N)=O)s3)c2cc1OC + CS(=O)(=O)CCNCc1ccc(-c2ccc3ncnc(Nc4ccc(OCc5cccc(F)c5)c(Cl)c4)c3c2)o1 [Lapatinib] (partner 2 µM)
In short: as §1

[10] = compound: COc1cc2ncn(-c3cc(OCc4ccccc4C(F)(F)F)c(C(N)=O)s3)c2cc1OC
In short: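 Viability was defined as treated-well nuclei divided by vehicle-well nuclei, with the median taken over replicate plates. Cells from lung cancer lines sat overnight at 37 °C in 1536-well plates, received five √10-spaced library-drug doses by pinning on vehicle-anchored plates, and grew 5 days without medium change before one-step fixation, permeabilisation and Hoechst staining, 4× imaging and MetaXpress nuclear counts. Only plates with control CV under 25% and at least one doubling were kept.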

[11] = compound: COc1cc2ncn(-c3cc(OCc4ccccc4C(F)(F)F)c(C(N)=O)s3)c2cc1OC + N=C(N)NC(=N)NCCc1ccccc1 [Phenformin] (partner 250 µM)
In short: as §1

[12] = compound: COc1cc2ncn(-c3cc(OCc4ccccc4C(F)(F)F)c(C(N)=O)s3)c2cc1OC + Cc1nc(Nc2ncc(C(=O)Nc3c(C)cccc3Cl)s2)cc(N2CCN(CCO)CC2)n1 [Dasatinib] (partner 0.075 µM)
In short: as §1

[13] = compound: COc1cc2ncn(-c3cc(OCc4ccccc4C(F)(F)F)c(C(N)=O)s3)c2cc1OC + Cc1cc(Nc2cc(N3CCN(C)CC3)nc(Sc3ccc(NC(=O)C4CC4)cc3)n2)n[nH]1 [Tozasertib] (partner 0.1 µM)
In short: as §1

[14] = compound: COc1cc2ncn(-c3cc(OCc4ccccc4C(F)(F)F)c(C(N)=O)s3)c2cc1OC + COc1cccc2cc(-c3nc([C@H]4CC[C@H](C(=O)O)CC4)n4ncnc(N)c34)[nH]c12 [OSI-027] (partner 0.5 µM)
In short: as §1

[15] = compound: COc1cc2ncn(-c3cc(OCc4ccccc4C(F)(F)F)c(C(N)=O)s3)c2cc1OC + CCNC(=O)c1noc(-c2cc(C(C)C)c(O)cc2O)c1-c1ccc(CN2CCOCC2)cc1 [Luminespib] (partner 0.01 µM)
In short: as §1

Q: For EBC-1, which relative viability ([1]; first compound 0.05 µM) is on record?
A: 0.478

Q: And the relative viability ([1]; first compound 0.1581 µM)?
A: 0.383

Q: What about the relative viability ([1]; first compound 0.5 µM) of the same cell line?
A: 0.145

Q: And the relative viability ([1]; first compound 1.581 µM)?
A: 0.134

Q: What about the relative viability ([1]; first compound 5 µM) of the same cell line?
A: 0.141

Q: And the relative viability ([2]; first compound 0.05 µM)?
A: 0.36

Q: What about the relative viability ([2]; first compound 0.1581 µM) of the same cell line?
A: 0.283

Q: And the relative viability ([2]; first compound 0.5 µM)?
A: 0.123

Q: And the relative viability ([2]; first compound 1.581 µM)?
A: 0.119

Q: And the relative viability ([2]; first compound 5 µM)?
A: 0.153

Q: What about the relative viability ([3]; first compound 0.05 µM) of the same cell line?
A: 0.454

Q: And the relative viability ([3]; first compound 0.1581 µM)?
A: 0.439

Q: What about the relative viability ([3]; first compound 0.5 µM) of the same cell line?
A: 0.208

Q: What about the relative viability ([3]; first compound 1.581 µM) of the same cell line?
A: 0.139

Q: And the relative viability ([3]; first compound 5 µM)?
A: 0.159

Q: What about the relative viability ([4]; first compound 0.05 µM) of the same cell line?
A: 0.798

Q: What about the relative viability ([4]; first compound 0.1581 µM) of the same cell line?
A: 0.889

Q: And the relative viability ([4]; first compound 0.5 µM)?
A: 0.446

Q: What about the relative viability ([4]; first compound 1.581 µM) of the same cell line?
A: 0.169

Q: And the relative viability ([4]; first compound 5 µM)?
A: 0.134

Q: And the relative viability ([5]; first compound 0.05 µM)?
A: 0.622

Q: And the relative viability ([5]; first compound 0.1581 µM)?
A: 0.758

Q: What about the relative viability ([5]; first compound 0.5 µM) of the same cell line?
A: 0.217

Q: What about the relative viability ([5]; first compound 1.581 µM) of the same cell line?
A: 0.154

Q: And the relative viability ([5]; first compound 5 µM)?
A: 0.128

Q: And the relative viability ([6]; first compound 0.05 µM)?
A: 0.19

Q: And the relative viability ([6]; first compound 0.1581 µM)?
A: 0.204

Q: What about the relative viability ([6]; first compound 0.5 µM) of the same cell line?
A: 0.17

Q: And the relative viability ([6]; first compound 1.581 µM)?
A: 0.169

Q: What about the relative viability ([6]; first compound 5 µM) of the same cell line?
A: 0.14

Q: What about the relative viability ([7]; first compound 0.05 µM) of the same cell line?
A: 0.0982

Q: And the relative viability ([7]; first compound 0.1581 µM)?
A: 0.102

Q: What about the relative viability ([7]; first compound 0.5 µM) of the same cell line?
A: 0.0761

Q: What about the relative viability ([7]; first compound 1.581 µM) of the same cell line?
A: 0.0874

Q: And the relative viability ([7]; first compound 5 µM)?
A: 0.0751

Q: And the relative viability ([8]; first compound 0.05 µM)?
A: 0.82

Q: What about the relative viability ([8]; first compound 0.1581 µM) of the same cell line?
A: 0.682

Q: What about the relative viability ([8]; first compound 0.5 µM) of the same cell line?
A: 0.235

Q: What about the relative viability ([8]; first compound 1.581 µM) of the same cell line?
A: 0.207

Q: What about the relative viability ([8]; first compound 5 µM) of the same cell line?
A: 0.194

Q: And the relative viability ([9]; first compound 0.05 µM)?
A: 0.195

Q: And the relative viability ([9]; first compound 0.1581 µM)?
A: 0.216

Q: What about the relative viability ([9]; first compound 0.5 µM) of the same cell line?
A: 0.199

Q: And the relative viability ([9]; first compound 1.581 µM)?
A: 0.172

Q: And the relative viability ([9]; first compound 5 µM)?
A: 0.176

Q: What about the relative viability ([10]; 0.05 µM) of the same cell line?
A: 0.924

Q: And the relative viability ([10]; 0.1581 µM)?
A: 0.929

Q: What about the relative viability ([10]; 0.5 µM) of the same cell line?
A: 0.301

Q: What about the relative viability ([10]; 1.581 µM) of the same cell line?
A: 0.19

Q: And the relative viability ([10]; 5 µM)?
A: 0.157

Q: For NCI-H1623, which relative viability ([11]; first compound 0.05 µM) is on record?
A: 0.588

Q: What about the relative viability ([11]; first compound 0.1581 µM) of the same cell line?
A: 0.395

Q: What about the relative viability ([11]; first compound 0.5 µM) of the same cell line?
A: 0.463

Q: And the relative viability ([11]; first compound 5 µM)?
A: 0.576

Q: What about the relative viability ([12]; first compound 0.05 µM) of the same cell line?
A: 0.525

Q: And the relative viability ([12]; first compound 0.1581 µM)?
A: 0.447

Q: And the relative viability ([12]; first compound 0.5 µM)?
A: 0.508

Q: And the relative viability ([12]; first compound 5 µM)?
A: 0.557

Q: What about the relative viability ([13]; first compound 0.05 µM) of the same cell line?
A: 0.438

Q: And the relative viability ([13]; first compound 0.1581 µM)?
A: 0.382

Q: And the relative viability ([13]; first compound 0.5 µM)?
A: 0.386

Q: What about the relative viability ([13]; first compound 5 µM) of the same cell line?
A: 0.399

Q: And the relative viability ([7]; first compound 0.05 µM)?
A: 0.824

Q: And the relative viability ([7]; first compound 0.1581 µM)?
A: 0.723

Q: And the relative viability ([7]; first compound 0.5 µM)?
A: 0.62

Q: And the relative viability ([7]; first compound 1.581 µM)?
A: 0.426

Q: What about the relative viability ([7]; first compound 5 µM) of the same cell line?
A: 0.694

Q: What about the relative viability ([14]; first compound 0.05 µM) of the same cell line?
A: 0.478

Q: And the relative viability ([14]; first compound 0.1581 µM)?
A: 0.429

Q: What about the relative viability ([14]; first compound 0.5 µM) of the same cell line?
A: 0.376

Q: And the relative viability ([14]; first compound 1.581 µM)?
A: 0.281

Q: And the relative viability ([14]; first compound 5 µM)?
A: 0.349

Q: And the relative viability ([15]; first compound 0.05 µM)?
A: 0.49

Q: What about the relative viability ([15]; first compound 0.1581 µM) of the same cell line?
A: 0.485

Q: What about the relative viability ([15]; first compound 0.5 µM) of the same cell line?
A: 0.435

Q: And the relative viability ([15]; first compound 5 µM)?
A: 0.37

Q: What about the relative viability ([10]; 0.05 µM) of the same cell line?
A: 0.962

Q: What about the relative viability ([10]; 0.1581 µM) of the same cell line?
A: 0.975

Q: And the relative viability ([10]; 0.5 µM)?
A: 0.694

Q: And the relative viability ([10]; 1.581 µM)?
A: 0.439

Q: What about the relative viability ([10]; 5 µM) of the same cell line?
A: 0.758
